Here are results for six compounds from ChEMBL document CHEMBL1201862, “PubChem BioAssay data set” (2004).

Test systems include SN12C; KM-20L2; 786-0; NCI-H460; OVCAR-4; ACHN; KM12; OVCAR-3; HT-29; SK-MEL-28; SW-620; IGROV-1; SNB-19; EKVX; A498; U-251; HCT-116; MDA-MB-231; NCI/ADR-RES; T47D.
What all share (assay): growth of human tumour cells (NCI), 48 h

SMILES strings stand for the structures.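 Assay format: 96-well plates, 48-hour exposure. GI50 marks 50% less growth.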 The source made the active and inactive calls. No stated cut-off is given here; in the data, active = GI50 up to about 1.1 µM and inactive = higher.

With `Nc1nc2c(ncn2C2OC(CO)C(O)C2O)c(=O)o1` (stereo not drawn), the GI50 with SN12C was > 100 µM (inactive); with KM-20L2, > 55 µM (inactive); in the assay with 786-0 it was > 100 µM (inactive); in the assay with NCI-H460 it was > 100 µM (inactive); in the assay with OVCAR-4, > 100 µM (inactive); in the assay on ACHN, > 83.8 µM (inactive). Also, the GI50 is > 100 µM (inactive) in the assay on KM12; > 100 µM (inactive) in the assay with OVCAR-3; 26.4 µM (inactive) with HT-29; > 100 µM (inactive) with SK-MEL-28; > 33.4 µM (inactive) in the assay on SW-620; > 100 µM (inactive) with IGROV-1. Moreover, the GI50 in the assay with SNB-19 is > 100 µM (inactive); with EKVX it was > 100 µM (inactive); in the assay on A498, > 100 µM (inactive); with U-251, > 100 µM (inactive); in the assay with HCT-116, > 82.2 µM (inactive).
Take `Cc1ccc(S(=O)(=O)N2CCC3(C(/C=C/c4ccccc4)=Nc4ccccc43)C2c2ccccc2)cc1` (stereo not drawn): the GI50 with SN12C, in the assay on KM-20L2, with 786-0, in the assay on NCI-H460, in the assay on OVCAR-4 and in the assay on ACHN was > 100 µM (inactive) throughout. In addition, the GI50 was > 100 µM (inactive) in the assay with KM12; > 100 µM (inactive) with OVCAR-3; > 100 µM (inactive) in the assay on HT-29; > 100 µM (inactive) with SK-MEL-28; 1.52 µM (inactive) with SW-620; 1.41 µM (inactive) with IGROV-1. Moreover, the GI50 in the assay on SNB-19, in the assay on EKVX, in the assay with A498, in the assay on U-251 and in the assay on HCT-116 was > 100 µM (inactive) in each case.
On to `COc1ccc2c(c1)[n+]([O-])c(C(=O)C/C(=N/NC(=O)C[N+](C)(C)C)C(=O)Nc1cccc(C)c1C)c(C)[n+]2[O-]`, for which the GI50 with SN12C, in the assay on KM-20L2, in the assay on 786-0, in the assay with NCI-H460, in the assay on OVCAR-4 and in the assay on ACHN was > 100 µM (inactive) in each case. In addition, the GI50 in the assay with KM12 was 6.34 µM (inactive); in the assay with OVCAR-3 it was > 100 µM (inactive); in the assay with HT-29 it was > 100 µM (inactive); with SK-MEL-28, > 100 µM (inactive); with SW-620, > 100 µM (inactive); in the assay with IGROV-1 it was > 100 µM (inactive). For the same compound, the GI50 in the assay on SNB-19, in the assay with EKVX, with A498, in the assay on U-251 and in the assay on HCT-116 was > 100 µM (inactive) throughout.
`C=CC[C@H]1C[C@@]2(C)OC[C@H](C(C)C)N2C1=O`: the GI50 with SN12C, with KM-20L2, in the assay on 786-0, with NCI-H460, in the assay with OVCAR-4 and with ACHN was > 100 µM (inactive) throughout. Moreover, the GI50 with KM12, in the assay on OVCAR-3, in the assay with HT-29, with SK-MEL-28, in the assay with SW-620 and in the assay on IGROV-1 was > 100 µM (inactive) each time. Also, the GI50 with SNB-19, in the assay with EKVX, in the assay with A498, with U-251 and in the assay with HCT-116 was > 100 µM (inactive) each time.
On to `CC(=O)NC1C(OCc2ccccc2)OC(CO)C(O)C1OC(C)C(=O)NC(C)C(=O)N[C@@H](CCC(=O)OCCCNC1c2ccccc2Nc2cccc([N+](=O)[O-])c21)C(N)=O` (stereo partly drawn), for which the GI50 with SN12C was < 0.01 µM (active); in the assay on KM-20L2, < 0.01 µM (active); in the assay on 786-0, < 0.01 µM (active); in the assay with NCI-H460 it was < 0.01 µM (active); in the assay with MDA-MB-231 it was 0.0282 µM (active); with OVCAR-4, < 0.0111 µM (active). The GI50 in the assay on ACHN, in the assay with KM12, with OVCAR-3, with HT-29, with SK-MEL-28 and in the assay with SW-620 was < 0.01 µM (active) throughout. Besides, the GI50 in the assay with NCI/ADR-RES is 0.0145 µM (active); in the assay on IGROV-1 it was 0.0222 µM (active); in the assay with SNB-19, < 0.0124 µM (active); in the assay on T47D, 0.174 µM (active); in the assay on EKVX, 0.0135 µM (active); with A498, < 0.01 µM (active). Besides, the GI50 with U-251 and with HCT-116 was < 0.01 µM (active) throughout.
For the compound `CCCCCCCCCCCCC(O)C1CCC(C(O)CCCCC(O)CCCCCC2CC(CC(C)=O)C(=O)O2)O1` (stereo not drawn), the GI50 with SN12C was 4.83 µM (inactive); with KM-20L2, 4.29 µM (inactive); in the assay on 786-0, 6.79 µM (inactive); with NCI-H460 it was 3.77 µM (inactive); in the assay with MDA-MB-231 it was 2.54 µM (inactive); in the assay with OVCAR-4, 1.44 µM (inactive). The GI50 in the assay on ACHN was 7.85 µM (inactive); in the assay with KM12, 1.63 µM (inactive); in the assay on OVCAR-3, 2.09 µM (inactive); in the assay with HT-29, 3.5 µM (inactive); in the assay on SK-MEL-28, 4.7 µM (inactive); in the assay on SW-620 it was 5.87 µM (inactive). The GI50 is 0.29 µM (active) in the assay with NCI/ADR-RES; 5.78 µM (inactive) with IGROV-1; 2.33 µM (inactive) in the assay with SNB-19; 2.77 µM (inactive) with T47D; 3.25 µM (inactive) with EKVX; 4.52 µM (inactive) in the assay with A498. Further, the GI50 with U-251 was 3.11 µM (inactive); in the assay with HCT-116, 0.175 µM (active).
